Patent publication EP1714645A1, “Pharmaceutical composition containing bakuchiol for treating breast cancer in women” (Sinphar Pharmaceutical Co., Ltd., priority 2005, dated 2006)
≈ marks a conversion by molar mass, not a printed value.

What was measured:
MDA-MB231 = experiment: Cytotoxicity assay (CCK-8, net growth % vs control); format: cell-based; conditions: Homo sapiens, MDA-MB-231; MDA-MB231 (estrogen receptor negative), 48 hours incubation; read-out: 50% inhibition of cell growth concentrations of test compounds (IC50)
Text: (§1) Materials: DMEM (medium), RPMI (medium), L-glutamine, penicillin, streptomycin and FBS (fetal bovine serum) were obtained from Gibco (NY, USA). Culture plasticware was purchased from Coming (MA, USA). […] All other chemicals used were of reagent grade and were purchased from Sigma or E. Merck (Germany).
(§2) Cell lines and cell cultures: The human breast cancer cell lines T47D and MDA-MB231 were obtained from American Type Culture Collection (ATCC). Of both cancer cells, T47D is estrogen receptor positive, and MDA-MB231 is estrogen receptor negative. Cells were cultured at 37°C in RPMI medium containing 10% charcoal-dextran stripped fetal bovine serum for T47D cells and in DMEM medium containing 10% charcoal-dextran stripped fetal bovine serum for MDA-MB231 cells with 5% CO2. The cell proliferation was determined by counting the viable cells with trypan blue exclusion.
(§3) Cytotoxicity assay: Dispense 198 µl of cell suspension (20,000 cells for T47D per well and 10,000 cell for MDA-MB231 per well) in a 96-well plate and pre-incubate the plate for 24 hours in an incubator at 37°C with humidified 5% CO2. […] After plate was incubated for 48 hours in the incubator, media were aspirated of and new media (100 µl) were added and incubated for 1 more hour. […] Measure the absorbance at 450 nm using a ELISA reader. […]

T47D = experiment: as above; format: cell-based; conditions: Homo sapiens; T47D (estrogen receptor positive), 48 hours incubation; read-out: 50% inhibition of cell growth concentrations of test compounds (IC50)
Text: as §1, §2, §3

female Wistar rats [1] = experiment: Ovariectomized rat osteoporosis model, bone histomorphometry of proximal tibia; format: in vivo; conditions: two months, mean value, p < 0.001 vs OVX; for Bone volume % (BV/TV): proximal tibia head trabecular bone, OVX group 12.50%, Sham 29.50%; for Erosion surface (ESBS, %): proximal tibia, OVX group 5.8%, Sham 4.7%
Text: (§4) The purpose of this example is to show the potency of bakuchiol in treating osteoporosis, wherein ovary of a female rat is removed to stimulate osteoporosis caused by estrogen deficiency.
(§5) The female Wistar rats of 16 weeks old (unless specified in the other experiment description) were obtained from the stock reared by the Animal breeding center, National Scientific Council in Taipei. These rats were grouped by weights matched in order to distribute the physiological response variation from rats evenly into each group. These rats were grouping as follows: • Baseline group fed with no drug added food (n=8) • Sham operation group fed with no drug added food (Sham) (n=10) • Ovariectomy operation group fed with no drug added food (OVX) (n=8) • Ovariectomy operation group fed with Drug A (5 mg/kg) added food (OVX+A) (n=9) • Ovariectomy operation group fed with Drug B (15 mg/kg) added food (OVX+B) (n=9)
Ovariectomy (removal of ovaries) operation: Ovariectomy was induced using a protocol similar to that described by Wronski et al (Wronski et al, Endocrinology, 123(2), 681-86 (1988)).
During the experiments, the rats were housed in hanging grid cages in groups of two at 21°C with a 12 hours dark cycle. Food (Rat-mouse diet III, adequate in 1 % of calcium content and 1.2 % of phosphate content, Purina, USA) was administered by paired feeding between the experimental and control groups. Pair-feeding was carried out by calculating the average amount of food intake in the Sham group. So give the same amount of food to the OVX , OVX+A (5 mg/kg), OVX+B (15 mg/kg) group animals the following day. These animals were fed with a period of two months except for the baseline group which were killed on the very day of doing ovariectomy or sham operation. Rats of OVX+A and OVX+B groups were fed with the usual food chuck but added certain amount of compound A and B in it respectively. Water was given ad libitum to all rats.
The test drug was weighted according to dose of 5 mg/kg and 15 mg/kg, and added into the ususal food chuck powder and mixed with 10% starch paste. After fully mixed, these chuck powder were made into mass manually and dried by air flow oven. The food with added drug to rats was performed by single blind method.
These labeling and bone histomorphometry assessment were done based on standard procedure in bone research (Lin et al, Calcif. Tissue Int., 67, 373-377 (2000)). Specimen were prestained with Villanueva bone stain, then […] and embedded in London resin. Undecalcified sections of 7 µm thick were cut using Jung-K microtome (Leica Ltd, USA) and treated with Villanueva stain for observation under light microscopy. Seven µm thick unstained sections were prepared for fluorescent microscopy and assessed with program Osteomeasure (3.0 version, Atlanta, USA). […]

female Wistar rats [2] = experiment: Ovariectomized rat osteoporosis model, apparent bone density measurement of tibia (Archimedes principle); format: in vivo; conditions: two months, mean value, OVX group 1.549, Sham 1.589, p < 0.05 vs OVX
Text: as §4, §5
Ovariectomy (removal of ovaries) operation: Ovariectomy was induced using a protocol similar to that described by Wronski et al (Wronski et al, Endocrinology, 123(2), 681-86 (1988)). […]
The whole tibia and femur were stripped off attached muscles and ligaments after sacrifice. […] The weight of bone measured in the air was marked as W-air. […] The apparent bone density was calculated as [W-air/(W-air minus W-water)] […]

[3] = system: five different human cancer cells (lung (A549), ovary (SK-OV-3), skin (SK-MEL-2), central nervous system (XF498), and large intestine (HCT)); conditions: range over A549, SK-OV-3, SK-MEL-2, XF498, HCT; cited from earlier work

SMILES: C=C[C@@](C)(/C=C/c1ccc(O)cc1)CCC=C(C)C [Bakuchiol, bakuchiol]
- IC50 (MDA-MB231): 0.62 µg/mL (≈ 2.42 µM)
- IC50 (T47D): 5 µg/mL (≈ 19.5 µM)
- Bone volume % (BV/TV) (female Wistar rats [1]; OVX+A group (5 mg/kg) in food): 19.80%
- Erosion surface (ESBS, %) (female Wistar rats [1]; OVX+A group (5 mg/kg) in food): 5.0%
- Bone volume % (BV/TV) (female Wistar rats [1]; OVX+B group (15 mg/kg) in food): 20.11%
- Erosion surface (ESBS, %) (female Wistar rats [1]; OVX+B group (15 mg/kg) in food): 4.8%
- Bone apparent density (female Wistar rats [2]; OVX+A group (5 mg/kg) in food): 1.582 gm/cm^3
- Bone apparent density (female Wistar rats [2]; OVX+B group (15 mg/kg) in food): 1.587 gm/cm^3
- average inhibitory concentration (IC50) [3]: 10~15 µg/cc
